# Source: BindingDB's records for doi:10.1016/S0960-894X(01)80724-1 (1993)
# Target: Squalene synthase (Candida albicans)
# Assay: Inhibition of Candida albicans squalene synthase(SQS)
row,SMILES,IC50
1,"C=C(CC[C@]12O[C@H](C(=O)O)[C@@](O)(C(=O)O)[C@](C(=O)O)(O1)[C@H](O)[C@H]2OC(=O)OC)[C@@H](OC(C)=O)[C@H](C)Cc1ccccc1 [(1S,3S,4S,5R,6R,7R)-1-((4S,5R)-4-Acetoxy-5-methyl-3-methylene-6-phenyl-hexyl)-4,6-dihydroxy-7-methoxycarbonyloxy-2,8-dioxa-bicyclo[3.2.1]octane-3,4,5-tricarboxylic acid]",> 200 nM
2,"C=C(CC[C@]12O[C@H](C(=O)O)[C@@](O)(C(=O)O)[C@](C(=O)O)(O1)[C@H](O)[C@H]2OC(=O)CCCCCCC)[C@@H](OC(C)=O)[C@H](C)Cc1ccccc1 [(1S,3S,4S,5R,6R,7R)-1-((4S,5R)-4-Acetoxy-5-methyl-3-methylene-6-phenyl-hexyl)-4,6-dihydroxy-7-octanoyloxy-2,8-dioxa-bicyclo[3.2.1]octane-3,4,5-tricarboxylic acid]",> 200 nM
3,"C=C(CC[C@]12O[C@H](C(=O)O)[C@@](O)(C(=O)O)[C@](C(=O)O)(O1)[C@H](OC(=O)CCCCCCc1ccccc1)[C@H]2O)[C@@H](OC(C)=O)[C@H](C)Cc1ccccc1 [(1S,3S,4S,5R,6R,7R)-1-((4S,5R)-4-Acetoxy-5-methyl-3-methylene-6-phenyl-hexyl)-4,7-dihydroxy-6-(7-phenyl-heptanoyloxy)-2,8-dioxa-bicyclo[3.2.1]octane-3,4,5-tricarboxylic acid]",7 nM
4,"C=C(CC[C@]12O[C@H](C(=O)O)[C@@](O)(C(=O)O)[C@](C(=O)O)(O1)[C@H](OC(=O)/C=C/c1ccccc1)[C@H]2O)[C@@H](OC(C)=O)[C@H](C)Cc1ccccc1 [(1S,3S,4S,5R,6R,7R)-1-((4S,5R)-4-Acetoxy-5-methyl-3-methylene-6-phenyl-hexyl)-4,7-dihydroxy-6-[(E)-(3-phenyl-acryloyl)oxy]-2,8-dioxa-bicyclo[3.2.1]octane-3,4,5-tricarboxylic acid]",10 nM
5,"C=C(CC[C@]12O[C@H](C(=O)O)[C@@](O)(C(=O)O)[C@](C(=O)O)(O1)[C@H](OC(=O)OCCCCCCCCC)[C@H]2O)[C@@H](OC(C)=O)[C@H](C)Cc1ccccc1 [(1S,3S,4S,5R,6R,7R)-1-((4S,5R)-4-Acetoxy-5-methyl-3-methylene-6-phenyl-hexyl)-4,7-dihydroxy-6-nonyloxycarbonyloxy-2,8-dioxa-bicyclo[3.2.1]octane-3,4,5-tricarboxylic acid]",2 nM
6,"C=C(CC[C@]12O[C@H](C(=O)O)[C@@](O)(C(=O)O)[C@](C(=O)O)(O1)[C@H](OC(=O)CCCCCCC)[C@H]2OC(=O)CCCCCCC)[C@@H](OC(C)=O)[C@H](C)Cc1ccccc1 [(1S,3S,4S,5R,6R,7R)-1-((4S,5R)-4-Acetoxy-5-methyl-3-methylene-6-phenyl-hexyl)-4-hydroxy-6,7-bis-octanoyloxy-2,8-dioxa-bicyclo[3.2.1]octane-3,4,5-tricarboxylic acid]",> 200 nM
7,"C=C(CC[C@]12O[C@H](C(=O)O)[C@@](O)(C(=O)O)[C@](C(=O)O)(O1)[C@H](OC(=O)OCCCC)[C@H]2O)[C@@H](OC(C)=O)[C@H](C)Cc1ccccc1 [(1S,3S,4S,5R,6R,7R)-1-((4S,5R)-4-Acetoxy-5-methyl-3-methylene-6-phenyl-hexyl)-6-butoxycarbonyloxy-4,7-dihydroxy-2,8-dioxa-bicyclo[3.2.1]octane-3,4,5-tricarboxylic acid]",8 nM
8,"C=C(CC[C@]12O[C@H](C(=O)O)[C@@](O)(C(=O)O)[C@](C(=O)O)(O1)[C@H](O)[C@H]2OC(C)=O)[C@@H](OC(C)=O)[C@H](C)Cc1ccccc1 [(1S,3S,4S,5R,6R,7R)-7-Acetoxy-1-((4S,5R)-4-acetoxy-5-methyl-3-methylene-6-phenyl-hexyl)-4,6-dihydroxy-2,8-dioxa-bicyclo[3.2.1]octane-3,4,5-tricarboxylic acid]",> 200 nM
